# pEC50, pIC50: −log10 of the molar value. Where “and” joins values, the source holds several entries; their conditions need not be identical. Equal values may be shown once. Calls of active or inactive are those of the source.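 Rule for the calls: active = compounds giving half or more protection of infected cells from virus-caused growth loss, again on retest; inactive = the rest.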 Where a SMILES comes first, the peptide text is derived from it. The star is where a group is joined. Boc = CC(C)(C)OC(=O)*; OBn = c1ccc(CO*)cc1
# System: CEM cells HIV-1 protection, formazan growth assay
# Assay: NCI AIDS Antiviral Assay
# Conditions: for pIC50: measured here: growth of uninfected CEM cells
# In short: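 Screen of anti-HIV-1 activity in human CEM cells using a formazan-based growth measurement at five drug concentrations. Hits with 50% or greater protection were repeated, and confirmation required reproducible complete protection.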
Compound,pEC50,pIC50,outcome
CCC(C)C(NC(=O)C(CCCC(N)=O)NC(=O)CNC(=O)C(NC(=O)C(NC(=O)C(NC(=O)C(Cc1ccccc1)NC(=O)C(C)NC(=O)C(CCCNC(=N)N)NC(=O)CNC(=O)C1CCCN1C(=O)CNC(=O)C(CCCNC(=N)N)NC(=O)C(CCCC(N)=O)NC(=O)C(NC(=O)C(CCCNC(=N)N)NC(=O)C(NC(=O)C(COC1OC(CO)C(O)C(O)C1NC(C)=O)NC(=O)C(CCCCN)NC(=O)C(CCCNC(=N)N)NC(=O)C(NC(=O)C(CC(N)=O)NC(=O)C(N)CC(N)=O)C(C)O)C(C)CC)C(C)CC)C(C)C)C(C)O)C(C)CC)C(=O)NCC(N)=O (stereo unspecified),< 4.30,< 4.30,
Cc1cc(C)nc(NS(=O)(=O)c2ccc(Nc3c4ccccc4nc4c(C(=O)NC(CO)(CO)CO)cccc34)cc2)n1,< 3.70,5.03,
O=C(Nc1cc2cc([N+](=O)[O-])ccc2oc1=O)c1cccs1,< 4.21,< 4.21,
NC(=S)N1N=C2CCCCCC[C@@H]2[C@H]1c1ccccc1,,,inactive
O=C1NC(=S)N(c2ccccc2)C1=O,< 3.70,< 3.70,
C(/C=C/c1ccccc1)=Nc1ccc(CCc2ccc(N=C/C=C/c3ccccc3)cc2)cc1,< 5.91,< 5.91,
N#C/C(C(=O)NCc1ccccc1)=C(/N)N1CCCC1,< 3.70,< 3.70,
CCOC(=O)c1cnc2cc3cccccc3n2c1=O,,,inactive
CCOC(=O)c1c(-c2ccccc2)c(C)cn1C,< 3.70,3.92,
NC1=N/N=C(c2ccccc2)\C=C/C(c2ccccc2)=N\1,< 4.72,< 4.72,
CC1ON2CCCC2[C@H]1C(=O)N1C2CC3CCC2(CS1(=O)=O)C3(C)C (stereo partly specified),< 3.70,< 3.70,
COc1cc(Cc2nnc(N)nc2N)cc(OC)c1OC,< 4.75,< 4.75,
CN(C)c1ccc(C(=C2C=CC(=[N+](C)C)C=C2)c2cc(S(=O)(=O)O)cc3cc(S(=O)(=O)O)ccc23)cc1,< 4.00,< 4.00,
CCC(O)(Cc1ccccc1)C(C(=O)O)c1ccccc1 (stereo unspecified),< 3.34,3.47,
COC(=O)C(=NNc1ccccc1[N+](=O)[O-])C(=O)OC,,,inactive
c1ccc(SC23C4C5C6C4C2C6C53)nc1 (stereo unspecified),< 3.82,4.11,
Cc1cccc(Cl)c1NC=O,,,inactive
O=C(Nc1ccc(Cl)c(Cl)c1)C(=O)C(C(=O)c1ccccc1-c1ccccc1)C1OC(=O)c2ccccc21 (stereo unspecified),< 4.18,4.53,
O=NC1C2CCC(C2)C1N=O.[Co].[c-]1[c-][c-][cH-][c-]1 (stereo unspecified),< 3.70,4.31,

Compound,pEC50,pIC50,outcome
COC(=O)C1=C(O)C(C(=O)OC)[C@@]2(O)[C@@H](C(=O)OC)[C@H](C)C[C@@H]1[C@@H]2C(=O)OC (stereo partly specified),< 3.70,4.40,
CCNC(=S)NNC(=O)c1nsc2ccccc12,< 3.47,3.73,
CCOC(=O)N/N=C(/OCC)c1ccccc1,< 3.70,< 3.70,
CCCN(CCc1ccc(-c2ccccc2)cc1)CCc1ccc2n[nH]nc2c1,< 3.70,5.00,
CC(C)(C)c1cc2ccc(C(N)=O)cc2c(=O)[nH]1,< 3.27,3.52,
COc1cccc(CN2CCN(/N=C/c3c4c(O)c5c(O)c(C)c6c(c5c3O)C(=O)C(C)(O/C=C/C(OC)C(C)C(OC(C)=O)C(C)C(O)C(C)C(O)C(C)/C=C/C=C(C)C(=O)N4)O6)CC2)c1 (stereo unspecified),< 3.70,5.18,
O=C(NCCO)c1cc2c(cn1)[nH]c1ccccc12,,,inactive
CC(=O)Nc1ccc2c(c1)Cc1cc(N(CCO)CCO)ccc1-2,< 3.70,4.13,
O=C(O)c1cc2sc(C(=O)O)cc2s1,,,inactive
O=C1C(=O)c2ccccc2C(O)=C1C(C1=C(O)c2ccccc2C(=O)C1=O)c1ccc(Cl)cc1,< 3.70,4.43,
Cc1c2ccccc2nc(CN2CCCCC2)[n+]1[O-],< 3.70,< 3.70,
C=CCNc1ncnc2sc(SC)nc12,< 3.70,3.97,
CN(C)COC(=S)SSSC(=S)OCN(C)C,6.71,6.14,
O=c1ssc(=Nc2ccccc2)n1-c1ccccc1,< 3.70,4.17 and 4.25,
COc1ccc(CCn2c(=O)c3ccccc3n(C)c2=O)cc1,< 4.08,4.49,
Cc1nnnn1C12CC3CC(CC(C3)C1)C2,,,inactive
COc1cccc(OC)c1/C=N\N1C(=O)c2ccccc2C1=O,< 3.94,4.92,
CSc1ccc(NC(=S)NN(C)C)cc1,< 3.70,4.03,
Nc1ccc2c(c1)C(=O)N(O)C2=O,< 2.85,3.12,

Compound,pEC50,pIC50,outcome
CN(C)N=Nc1ccc2[nH]c(=O)[nH]c2c1,< 3.70,3.99,
CC1OC(OC2C(O)COC(OC3C(C)OC(OC4C(OC(=O)[C@]56CCC(C)(C)C[C@@H]5C5=CCC7[C@@]8(C)C[C@H](O)[C@H](OC9OC(CO)C(O)C(O)C9O)[C@@](C)(CO)[C@@H]8CC[C@@]7(C)[C@]5(C)CC6)OCC(O)C4O)C(O)C3O)C2O)C(O)C(O)C1O (stereo partly specified),< 4.00,4.53,
O=C(O)\C=C/C=C/C=C/C=C/C(=O)O,3.90,3.87,
COC(=O)CN=C1NC(=S)N(Cc2ccc(OC)cc2)C12CCCC2,< 3.70,< 3.70,
Cc1ccc2cc(NC(=O)CN)c3ccc(C)nc3c2n1,< 4.70,5.43,
C=CC(C)(C)C12CC3C(=O)N/C(=C\c4cnc[nH]4)C(=O)N3C1Nc1ccccc12 (stereo unspecified),< 3.70,4.04,
COc1cccc(C2c3cc4c(cc3OC(N3CCCCC3)C2C)OCO4)c1O (stereo unspecified),< 3.70,5.52,
CC(=O)OCCOCN1C(=O)NC(=O)/C(=C/c2cccc(OCc3ccccc3)c2)C1=O,< 3.70,4.74,
O=C1OCc2c1[nH]c(=O)[nH]c2=O,< 3.70,< 3.70,
CC(=O)OC/C=C/[C@H](O[Si](C)(C)C(C)(C)C)[C@@H](O)/C=C/COC(C)=O,< 3.70,3.79,
O=C(CCN1CCN(c2ccccc2)CC1)N1CCc2c([nH]c3ccccc23)C1c1cccnc1 (stereo unspecified),< 4.81,< 4.81,
CCOC(=O)/C=C1\CONC(c2ccc(OC)cc2)=N1,< 4.72,< 4.72,
S=C1SSC(=S)SS1,< 4.48,< 4.48,
O=C(O)C[C@@H]1[C@@H](O)[C@@H](O)CN2C(=O)c3ccccc3[C@H]12,< 3.70,< 3.70,
CC(NC(=O)C(NC(=O)OC(C)(C)C)C(C)C)C(=O)N1CCCC1C(=O)NCC(=O)NC(C(=O)NCC(=O)OCc1ccccc1)C(C)C (stereo unspecified) (Boc-VAPGVG-OBn; configuration not given here),< 3.70,< 3.70,
COc1nc2c(c(=O)n1C)N=C(c1ccccc1)[C@H](C(CC(=O)c1ccccc1)c1ccccc1)C(c1ccccc1)N2 (stereo partly specified),,,inactive
COC(=O)C(C(=O)C(=O)Nc1ccc([N+](=O)[O-])cc1[N+](=O)[O-])c1nc2ccc(Cl)cc2[nH]c1=O (stereo unspecified),< 4.13,4.18,
COC(=O)c1cc(C(=CC(=O)N[C@H]2CC[C@]3(C)C4CC[C@]5(C)[C@@H](C(C)CCCC(C)C)CC[C@H]5C4CC[C@H]3C2)c2cc(Cl)c(OC)c(C(=O)OC)c2)cc(Cl)c1OC (stereo partly specified),< 4.00,< 4.00,
O=C(CCCN1CCC(Nc2ccc(F)cc2)(c2nnnn2C2CCCCC2)CC1)c1ccc(F)cc1,< 3.70,4.78,
